Assay [1] has as its system p53. To be noted: report of Chavala et al [26]; cited from earlier work.
Assay [2] has as its system endothelial cells. To be noted: report of Chavala et al [26]; cited from earlier work.
Assay [3] concerns endothelial cells. Particulars: report of Chavala et al [26]; cited from earlier work. This is another data set of the same source.
For another assay, the system named is VSMC. Particulars: report of Chavala et al [26]; cited from earlier work.
The next assay has as its system VEGF. The experiment in a line: Immunoblot of VEGF protein in ischemic tissue after hindlimb ischemia. Format: in vivo, mouse. On the procedure:
(§1) All experiments and animal husbandry were performed with approval from the University of California, San Francisco and University of Maryland Institutional Animal Care and Use Committees. Wild-type (p53^+/+), p53-null (p53^−/−), and p53^−/+ heterozygoytes were maintained on a C57Bl/6 background. […]
(§2) TA tissue from ischemic and control limbs from were harvested and pulverized in liquid nitrogen. For whole cell lysates, pulverized tissue was incubated in a modified RIPA buffer (50 mM Tris-HCl, pH 7.4; 1% SDS; 1% NP-40; 0.25% sodium deoxycholate; 1 mM PMSF; 1 mM DTT; Complete Mini, EDTA-free protease inhibitor cocktail and PhosStop phosphatase inhibitor tablets (Roche Applied Science; Indianapolis, Ind.), strained, and sonicated 3 times for 10 seconds. Samples were centrifuged at 10,000 G for ten minutes at 4 C, and the supernatant preserved. Protein concentration was measured using a BCA Protein Assay Kit. A total of 20 μg of protein was resolved on a 4-12% Bis-Tris gradiant polyacrylamide gel (Invitrogen; Carlsbad, Calif.) under reduced conditions and transferred to a PVDF membrane (Amersham Biosciences; Pittsburgh, Pa.). […]
On the technique in general: In western blotting, separated proteins are transferred to a membrane and probed.

In assay [4] the target is T1, p53 (Mus musculus, UniProt P02340). The experiment in a line: Collateral artery development (arteriogenesis, gracilis artery index) after hindlimb ischemia. More on the design: from tissue; host or cells: live C57Bl/6 p53+/+ mice (hindlimb muscle and arteries). Particulars: p53+/+ mice, vs vehicle. The assay is classed as in vivo. On the procedure:
All experiments and animal husbandry were performed with approval from the University of California, San Francisco and University of Maryland Institutional Animal Care and Use Committees. Wild-type (p53^+/+), p53-null (p53^−/−), and p53^−/+ heterozygoytes were maintained on a C57Bl/6 background. […] For pharmacological modulation of p53 in vivo, quinacrine or vehicle (sterile water) was administered intraperitoneally at 10 mg/kg/day, beginning 5 days prior to surgery, and continued daily post-operatively until the experimental endpoint; PFT-α or vehicle (10% DMSO) was administered intraperitoneally at 2 mg/kg/day every other day beginning two days prior to surgery and continued until the experimental end-point. Mesenteric artery ligation was performed on 8- to 12-week old male wild-type and p53^−/− mice as described previously with modifications. A laparotomy was performed and the small intestine exposed and suffused with warmed saline. […] The control artery (CTL) was considered a straight artery three arteries from the site of ligation. […]
Independent experiments with separate animal cohorts for capillary and larger artery analysis were performed. […] Vascular regions were quantified individually and normalized to the contralateral control muscle. […] Two 5 μm sections in two separate areas 0.5 mm apart were measured and the results averaged. […]

The subject of a further assay is HIF-1α. Description: Immunoblot of HIF-1α protein in ischemic tissue after hindlimb ischemia. The assay is classed as in vivo, mouse. On the procedure: as §1, §2
In assay [5] the target is T1, p53. Description: Diabetic ischemia model of hindlimb ischemia. Format: in vivo. To be noted: clinically relevant diabetic ischemia model of hindlimb ischemia. Details: relieving ischemia in a clinically relevant diabetic ischemia model of hindlimb ischemia; from tissue; host or cells: animal model of diabetic hindlimb ischemia (not described further).
Assay [6] addresses T1, p53. The experiment in a line: Blood flow restoration after hindlimb ischemia by laser Doppler perfusion imaging (LDPI), p53+/+ mice. Format: in vivo. Details: from tissue; host or cells: live C57Bl/6 p53+/+ mice (hindlimb muscle and arteries). Particulars: 2 weeks after hindlimb ischemia, vs vehicle. On the procedure: (§3) All experiments and animal husbandry were performed with approval from the University of California, San Francisco and University of Maryland Institutional Animal Care and Use Committees. Wild-type (p53^+/+), p53-null (p53^−/−), and p53^−/+ heterozygoytes were maintained on a C57Bl/6 background. […] For pharmacological modulation of p53 in vivo, quinacrine or vehicle (sterile water) was administered intraperitoneally at 10 mg/kg/day, beginning 5 days prior to surgery, and continued daily post-operatively until the experimental endpoint; PFT-α or vehicle (10% DMSO) was administered intraperitoneally at 2 mg/kg/day every other day beginning two days prior to surgery and continued until the experimental end-point. […]
(§4) Restoration of blood flow after hindlimb ischemia was assessed by laser Doppler perfusion imaging (LDPI) of the hindlimb paws using a PeriScan PIM 3 System (Perimed AB; Stockholm, Sweden) as previously described. Three successive readings were averaged and expressed as an ischemic index (ischemic paw over contralateral paw). For mesenteric artery ligation, blood flow was measured in the HF or CTL artery as volume-flow with a nanoprobe secured around the artery (0.5 mm nanoprobe, Transonic Systems Inc., Ithaca, N.Y.) in anesthetized mice. Flow was averaged over ten minutes and expressed as an arterial index (HF artery over CTL artery).

The target in assay [7] is T1, p53. Description: Capillary density in ischemic tibialis anterior muscle after hindlimb ischemia. More on the design: from tissue; host or cells: live C57Bl/6 p53+/+ mice (hindlimb muscle and arteries). Particulars: p53+/+ mice, vs vehicle. The assay is classed as in vivo.
Assay [8] concerns p53. The experiment in a line: Blood flow restoration after hindlimb ischemia by LDPI, p53-/- mice (specificity control). Format: in vivo, mouse. To be noted: 2 weeks after hindlimb ischemia. As to the method: as §3, §4
For another assay, the system named is aortic rings. The experiment in a line: Endothelial outgrowth aortic ring assay under hypoxic conditions. Format: cell-based, mouse. Particulars: 20 μM quinacrine, vs vehicle-treated controls.
[9] abbreviates: PFT-α-treated mice, 3 days after surgery.
[10] abbreviates: PFT-α 2 mg/kg/day every other day intraperitoneally.
Where [11] appears, read: quinacrine-treated mice, 7 days after hindlimb ischemia.
Setting [12] is: quinacrine 10 mg/kg/day intraperitoneally.

Each structure is given as a SMILES string.

T1 sequence (P02340 whole entry): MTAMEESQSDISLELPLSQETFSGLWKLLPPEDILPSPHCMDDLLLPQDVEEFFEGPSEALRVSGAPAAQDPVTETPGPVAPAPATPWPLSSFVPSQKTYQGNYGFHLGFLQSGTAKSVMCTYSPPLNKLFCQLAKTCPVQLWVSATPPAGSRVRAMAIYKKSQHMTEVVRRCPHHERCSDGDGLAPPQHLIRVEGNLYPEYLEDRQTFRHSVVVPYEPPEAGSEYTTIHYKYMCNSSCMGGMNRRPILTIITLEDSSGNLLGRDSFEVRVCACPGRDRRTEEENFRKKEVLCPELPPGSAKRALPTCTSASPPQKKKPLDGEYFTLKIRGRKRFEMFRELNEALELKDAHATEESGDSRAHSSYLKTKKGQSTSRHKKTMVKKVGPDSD

For the compound `COc1ccc(C2=N[C@@H](c3ccc(Cl)cc3)[C@@H](c3ccc(Cl)cc3)N2C(=O)N2CCNC(=O)C2)c(OC(C)C)c1` [Nutlin-3], in the assay on p53 [1], the pathologic retinal angiogenesis entry is recorded as “inhibit pathologic retinal angiogenesis”. Besides, the “apoptosis in endothelial cells” value in the assay on endothelial cells [2] was “induced apoptosis”. In the assay on endothelial cells [3], the “proliferation of endothelial cells” value was “inhibited proliferation”. Also, the “proliferation of VSMC” value with VSMC is listed as “inhibited proliferation”.
In the case of `Cc1ccc(C(=O)Cn2c3c(sc2=N)CCCC3)cc1` [PFT-α, pifithrin-α], the VEGF protein levels result with VEGF (setting [9]) was “increase”. The “collateral vessel formation (gracilis artery index)” value on p53 [4] (PFT-α 2 mg/kg/day every other day intraperitoneally, 2 weeks after hindlimb ischemia) is reported as “collateral vessel formation increased”. Moreover, the HIF-1α protein levels result with HIF-1α (setting [9]) is listed as “increase”. Further, the “arteriogenesis and relief of ischemia” value at p53 [5] is “highly effective at increasing arteriogenesis and relieving ischemia”. For the same compound, the “blood flow restoration after ischemia (LDPI)” value on p53 [6] (setting [10]) is recorded as “enhanced blood flow restoration”. Also, the “capillary growth (capillary counts)” value at p53 [7] (setting [10]) was “No difference in capillary growth was detected”. Moreover, the “blood flow restoration after ischemia in p53-/- mice (LDPI)” value in the assay with p53 [8] (PFT-α) is “had no effect on blood flow restoration”.
For `CCN(CC)CCCC(C)Nc1c2ccc(Cl)cc2nc2ccc(OC)cc12` (stereo not drawn) [quinacrine], the VEGF protein levels entry in the assay with VEGF (setting [11]) is on record as “suppressed”. In addition, the “collateral development (larger vessel growth)” value on p53 [4] (quinacrine 10 mg/kg/day intraperitoneally, hindlimb ischemia) is “did impair collateral development”. In the assay with HIF-1α (setting [11]), the HIF-1α protein levels entry is on record as “suppressed”. In the assay with aortic rings, the “endothelial outgrowth from aortic rings” value is “significantly inhibited endothelial outgrowth”. In addition, the “blood flow after ischemia (LDPI)” value on p53 [6] (setting [12]) is “significantly attenuated the improvement in blood flow”. In addition, the capillary density entry at p53 [7] (setting [12]) is “did not affect capillary density”. In addition, the “blood flow after ischemia in p53-/- mice (LDPI)” value with p53 [8] (quinacrine) is listed as “had no effect on blood flow”.

(Values after patent publication US10314826B2, “Methods of treatment of ischemia-induced angiogenesis and arteriogenesis” (UNIVERSITY OF MARYLAND, BALTIMORE, priority 2014, dated 2019).)
